Measured values published in patent publication EP1957493B1, “8-AZABICYCLO[3.2.1]OCTANE DERIVATIVES USEFUL AS MONOAMINE REUPTAKE INHIBITORS” (N.V. Organon, priority 2005, dated 2007).
pEC50: −log10 of the molar value. Where two headings read alike, the source gives them in different places.

Key:
Assay type in all cases: cell-based
[1] = molecular target: T1, human dopamine transporter (hDAT) (Homo sapiens, UniProt Q01959); test: Assay of monoamine uptake: inhibition of dopamine uptake
T1 construct: expressed in transfected cells
T1 sequence (Q01959 whole entry): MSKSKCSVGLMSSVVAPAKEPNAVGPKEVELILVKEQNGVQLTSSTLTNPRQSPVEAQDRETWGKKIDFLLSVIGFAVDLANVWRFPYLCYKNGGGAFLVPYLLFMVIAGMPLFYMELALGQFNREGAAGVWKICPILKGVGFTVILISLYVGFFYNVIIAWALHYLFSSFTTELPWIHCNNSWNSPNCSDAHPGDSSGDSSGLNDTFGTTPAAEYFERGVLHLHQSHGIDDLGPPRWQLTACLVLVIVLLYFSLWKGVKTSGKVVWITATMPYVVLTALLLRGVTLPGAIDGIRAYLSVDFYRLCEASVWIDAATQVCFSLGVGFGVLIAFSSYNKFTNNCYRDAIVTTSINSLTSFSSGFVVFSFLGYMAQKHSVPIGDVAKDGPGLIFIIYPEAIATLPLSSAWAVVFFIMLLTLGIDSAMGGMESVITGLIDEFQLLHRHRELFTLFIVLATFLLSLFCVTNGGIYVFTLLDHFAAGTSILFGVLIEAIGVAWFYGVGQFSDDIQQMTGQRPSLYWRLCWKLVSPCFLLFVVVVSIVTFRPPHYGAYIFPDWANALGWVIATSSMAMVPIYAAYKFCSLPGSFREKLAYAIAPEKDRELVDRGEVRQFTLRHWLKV
Description: (§1) The in vitro test for the inhibition of dopamine and serotonin uptake was performed in Chinese Hamster Ovary cells expressing the human dopamine transporter (hDAT) or the human serotonin transporter (hSERT). The in vitro test for the inhibition of noradrenaline uptake was performed in Madin Darby Canine Kidney Cells (MDCK) expressing the human noradrenaline transporter (hNET).
(§2) Briefly, cell lines stably overexpressing the appropriate human transporter were propagated and plated according to standard cell culture techniques. Following plating, cells were left to adhere for either one or two days. A 6-point serial dilution (normally 1 E-5M to 1E-10M) of test and reference compounds was prepared, added to the washed cells and incubated for 5 minutes at ambient temperature for dopamine or serotonin transporter overexpressing and 37°C for noradrenaline overexpressing cells. Next, a final concentration of 20 nM of appropriate neurotransmitter (mixture of [^3H]-neurotransmitter and non-labelled neurtoransmitter) was added and the cells were incubated for three or five minutes at ambient temperature for dopamine or serotonin transporter overexpressing cells or ten minutes at 37°C for noradrenaline overexpressing cells. Following termination of the assay, Microscint-20 was added directly to the cells and the amount of radioactivity taken up by the cells was estimated by scintillation counting.
(§3) pEC50 values indicating inhibition of monoamine uptake were calculated using standard curve fitting techniques.

[2] = molecular target: T2, human noradrenaline transporter (hNET) (Homo sapiens, UniProt P23975); test: Assay of monoamine uptake: inhibition of noradrenaline uptake
T2 construct: expressed in transfected cells
T2 sequence (P23975 whole entry): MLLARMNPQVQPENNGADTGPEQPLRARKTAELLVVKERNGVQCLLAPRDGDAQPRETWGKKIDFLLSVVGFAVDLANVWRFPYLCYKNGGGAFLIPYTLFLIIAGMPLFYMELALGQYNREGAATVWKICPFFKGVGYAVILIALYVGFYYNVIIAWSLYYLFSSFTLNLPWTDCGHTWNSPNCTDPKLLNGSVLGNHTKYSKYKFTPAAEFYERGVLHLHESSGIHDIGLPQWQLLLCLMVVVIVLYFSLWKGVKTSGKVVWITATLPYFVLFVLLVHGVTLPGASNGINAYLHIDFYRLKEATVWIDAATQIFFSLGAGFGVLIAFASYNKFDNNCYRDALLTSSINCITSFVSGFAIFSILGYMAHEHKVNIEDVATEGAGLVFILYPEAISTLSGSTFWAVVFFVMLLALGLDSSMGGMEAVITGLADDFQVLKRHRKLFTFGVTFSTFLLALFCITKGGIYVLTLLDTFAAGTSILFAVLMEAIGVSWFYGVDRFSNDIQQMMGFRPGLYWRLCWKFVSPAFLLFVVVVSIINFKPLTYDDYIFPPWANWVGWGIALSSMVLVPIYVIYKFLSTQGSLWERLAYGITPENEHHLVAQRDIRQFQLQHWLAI
Description: as §1, §2, §3

[3] = molecular target: T3, human serotonin transporter (hSERT) (Homo sapiens, UniProt P31645); test: Assay of monoamine uptake: inhibition of serotonin uptake
T3 construct: expressed in transfected cells
T3 sequence (P31645 whole entry): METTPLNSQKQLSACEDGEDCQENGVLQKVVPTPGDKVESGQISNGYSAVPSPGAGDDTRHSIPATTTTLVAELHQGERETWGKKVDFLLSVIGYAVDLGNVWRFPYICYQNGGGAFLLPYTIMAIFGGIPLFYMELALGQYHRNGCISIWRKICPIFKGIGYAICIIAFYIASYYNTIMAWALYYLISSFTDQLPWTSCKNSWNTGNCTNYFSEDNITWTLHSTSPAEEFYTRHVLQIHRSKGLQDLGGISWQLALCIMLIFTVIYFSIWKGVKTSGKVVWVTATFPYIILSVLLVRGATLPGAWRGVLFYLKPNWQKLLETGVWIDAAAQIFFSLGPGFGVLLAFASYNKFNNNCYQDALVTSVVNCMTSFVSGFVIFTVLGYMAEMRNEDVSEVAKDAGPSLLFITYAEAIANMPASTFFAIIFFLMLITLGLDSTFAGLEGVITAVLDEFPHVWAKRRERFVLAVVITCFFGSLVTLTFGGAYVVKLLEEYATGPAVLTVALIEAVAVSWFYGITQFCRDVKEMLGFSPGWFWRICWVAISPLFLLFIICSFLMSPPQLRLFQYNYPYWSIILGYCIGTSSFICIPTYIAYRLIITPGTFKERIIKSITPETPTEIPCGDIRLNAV
Description: as §1, §2, §3

[4] = inhibition of dopamine uptake, Chinese Hamster Ovary cells expressing hDAT, 20 nM neurotransmitter ([3H]-labelled and non-labelled), ambient temperature, read-out: hDAT
[5] = inhibition of noradrenaline uptake, Madin Darby Canine Kidney Cells (MDCK) expressing hNET, 20 nM neurotransmitter ([3H]-labelled and non-labelled), 37°C, read-out: hNET
[6] = inhibition of serotonin uptake, Chinese Hamster Ovary cells expressing hSERT, 20 nM neurotransmitter ([3H]-labelled and non-labelled), ambient temperature, read-out: hSERT

| SMILES | pEC50 [1] | pEC50 [2] | pEC50 [3] | pEC50 [1, 4] | pEC50 [2, 5] | pEC50 [3, 6] |
| --- | --- | --- | --- | --- | --- | --- |
| c1ccc(Oc2cccc(OC3CC4CCC(C3)N4)c2)cc1 (stereo not drawn) [Example 111.5, 3-endo-(3-Phenoxyphenoxy)-8-azabicyclo[3.2.1]octane] | > 7.00 | 6.00 to 7.00 | < 6.00 | – | – | – |
| N#Cc1ccc(-c2cc(C#N)cc(OC3CC4CCC(C3)N4)c2)nc1 (stereo not drawn) [Example IX.3, exo 6-(3-(8-Azabicyclo[3.2.1]oct-3-yloxy)-5-cyanophenyl)nicotinonitrile] | – | – | – | < 6.00 | < 6.00 | > 7.00 |
| FC(F)(F)c1ccccc1-c1cccc(OC2CC3CCC(C2)N3)c1 (stereo not drawn) [IV.8, 3-exo-(2'-Trifluoromethylbiphenyl-3-yloxy)-8-azabicyclo[3.2.1]octane] | – | – | – | < 6.00 | > 7.00 | 6.00 to 7.00 |
| COc1cc(Oc2ccccc2)cc(OC2CC3CCC(C2)N3)c1F (stereo not drawn) [IV.9, 3-exo-(2-Fluoro-3-methoxy-5-phenoxyphenoxy)-8-azabicyclo[3.2.1]octane] | – | – | – | > 7.00 | > 7.00 | < 6.00 |
| Clc1cc(Oc2ccccc2)cc(O[C@@H]2C[C@H]3CC[C@@H](C2)N3)c1 [IV.19, 3-exo-(3-Chloro-5-phenoxyphenoxy)-8-azabicyclo[3.2.1]octane] | – | – | – | > 7.00 | > 7.00 | < 6.00 |
| FC(F)(F)c1ccc(OC2CC3CCC(C2)N3)cc1-c1ccccc1 (stereo not drawn) [VI.3, 3-exo-(6-Trifluoromethylbiphenyl-3-yloxy)-8-azabicyclo[3.2.1]octane] | – | – | – | < 6.00 | < 6.00 | 6.00 to 7.00 |
| N#Cc1ccc(-c2cc(C#N)cc(OC3CC4CCC(C3)N4)c2)cc1 (stereo not drawn) [VI.8, exo 5-(8-Azabicyclo[3.2.1]oct-3-yloxy)-biphenyl-3,4'-dicarbonitrile] | – | – | – | < 6.00 | < 6.00 | > 7.00 |
